{"source": "patent US20070218134A1", "about": "“Compositions Comprising Organic Compounds” (priority 2003, published 2007)", "key": {"[1]": {"assay": "degradation kinetics of fluvastatin in aqueous solution at various pH", "assay_type": "physicochemical", "excerpt": "Certain HMG-CoA reductase inhibitors are extremely susceptible to degradation at pH below about 8. An example of such a compound comprises the compound having the USAN designation fluvastatin sodium (hereinafter “fluvastatin”), of the chemical designation: R*,S*-(E)(±)-7-[3-(4-fluorophenyl)-1-(1-methyl-ethyl)-1H-indol-2-yl]-3,5-dihydroxy-6-heptenoic acid, sodium salt, [see European Patent Application EP-A-114027].\nFor example, the degradation kinetics of fluvastatin in aqueous solution at various pH is illustrated below:\nThe above-indicated instability of fluvastatin and related HMG-CoA reductase compounds is believed to be due to the extreme lability of the β,δ-hydroxy groups on the heptenoic acid chain and the presence of the double bond, such that at neutral to acidic pH, the compounds readily undergo elimination or isomerization or oxidation reactions to form conjugated unsaturated aromatic compounds, as well as the threo isomer, the corresponding lactones, and other degradation products."}, "[2]": {"assay": "solubility of pitavastatin depending on pH", "assay_type": "physicochemical", "conditions": "acidic pH conditions"}}, "note": "Counter-ions that a name gives are not always drawn.", "data": [{"smiles": "CC(C)n1c(/C=C/C(O)CC(O)CC(=O)O)c(-c2ccc(F)cc2)c2ccccc21", "note": "(stereo not drawn) [fluvastatin, R*,S*-(E)(±)-7-[3-(4-fluorophenyl)-1-(1-methyl-ethyl)-1H-indol-2-yl]-3,5-dihydroxy-6-heptenoic acid, sodium salt]", "values": [{"measurement": "% fluvastatin remaining at 37° C.", "setting": "[1]; pH 1.0, after 1 hour", "value": 10.9, "unit": "%"}, {"measurement": "% fluvastatin remaining at 37° C.", "setting": "[1]; pH 1.0, after 24 hrs", "value": 0, "unit": "%"}, {"measurement": "% fluvastatin remaining at 37° C.", "setting": "[1]; pH 4.0, after 1 hour", "value": 86.7, "unit": "%"}, {"measurement": "% fluvastatin remaining at 37° C.", "setting": "[1]; pH 4.0, after 24 hrs", "value": 25.2, "unit": "%"}, {"measurement": "% fluvastatin remaining at 37° C.", "setting": "[1]; pH 6.0, after 1 hour", "value": 99.6, "unit": "%"}, {"measurement": "% fluvastatin remaining at 37° C.", "setting": "[1]; pH 6.0, after 24 hrs", "value": 97.1, "unit": "%"}, {"measurement": "% fluvastatin remaining at 37° C.", "setting": "[1]; pH 7.8, after 1 hour", "value": 98.3, "unit": "%"}, {"measurement": "% fluvastatin remaining at 37° C.", "setting": "[1]; pH 7.8, after 24 hrs", "value": 98.0, "unit": "%"}]}, {"smiles": "O=C(O)C[C@H](O)C[C@H](O)/C=C/c1c(C2CC2)nc2ccccc2c1-c1ccc(F)cc1", "note": "[pitavastatin]", "values": [{"measurement": "solubility of pitavastatin", "setting": "[2]", "value": "higher"}]}]}
